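These data come from cells grown in 96-well plates and exposed to compound for 48 hours at five concentrations. At the GI50, growth is halved.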 Active and inactive are the calls of the source. Cut-off read from the data, not from the text of the source: active = GI50 up to about 1.1 µM and inactive = higher.
What was measured:
Experiment in all cases: NCI tumour cell line growth inhibition, 48 h
[1] = tested on: BT-549
[2] = tested on: CAKI-1
[3] = tested on: HCC 2998
[4] = tested on: K562
[5] = tested on: KM12
[6] = tested on: M14
[7] = tested on: NCI-H460
[8] = tested on: OVCAR-4
[9] = tested on: PC-3
[10] = tested on: SF-295
[11] = tested on: SF-539
[12] = tested on: SK-MEL-2
[13] = tested on: SK-OV-3
[14] = tested on: T47D
[15] = tested on: UACC-257
[16] = tested on: UACC-62
[17] = tested on: UO-31
[18] = tested on: Malme-3M

Measured: GI50

Cc1c[nH]c(C(=O)O)c1-c1cccn1-c1ccc(Cl)cc1[N+](=O)[O-]
inactive: [1] > 100 µM | [2] > 100 µM | [3] > 100 µM | [4] 73.8 µM | [5] 76.6 µM | [6] > 100 µM | [7] > 100 µM | [8] > 100 µM | [9] 49.9 µM | [10] 73.8 µM | [11] > 100 µM | [12] > 100 µM | [13] > 100 µM | [14] > 100 µM | [15] > 100 µM | [16] > 100 µM | [17] 45.9 µM

COc1ccc(C2CC(c3c(O)ccc4ccccc34)=NN2c2ccc([N+](=O)[O-])cc2[N+](=O)[O-])cc1OC (centres undefined)
inactive: [1] 30 µM | [2] 16.9 µM | [3] 28.5 µM | [4] 3.47 µM | [5] 13.2 µM | [6] 32.7 µM | [18] 17.4 µM | [7] 14.6 µM | [8] 16.6 µM | [9] 11.5 µM | [10] 12.2 µM | [11] 26.1 µM | [12] 19.4 µM | [13] 26.4 µM | [14] 6.25 µM | [15] 22.4 µM | [16] 15.3 µM | [17] 9.25 µM

CC(C)(C)c1cc(C(=O)Nc2cc(Br)c(Br)cc2S(N)(=O)=O)cc(C(C)(C)C)c1O
inactive: [1] 12.2 µM | [2] 9.93 µM | [3] 5.07 µM | [4] 5.71 µM | [5] 5.77 µM | [6] 15.2 µM | [18] 13.5 µM | [8] 12.1 µM | [9] 10.7 µM | [10] 14.2 µM | [11] 15.8 µM | [12] 10 µM | [13] 16.4 µM | [14] 3.24 µM | [15] 17.9 µM | [16] 6.08 µM | [17] 10.5 µM

Cc1cc2ccccc2c[n+]1CC(O)C[n+]1cc2ccccc2cc1C
inactive: [1] > 100 µM | [2] > 100 µM | [3] > 100 µM | [4] > 100 µM | [5] > 100 µM | [6] > 100 µM | [18] > 100 µM | [7] > 100 µM | [8] > 100 µM | [9] > 100 µM | [10] 20.1 µM | [11] > 100 µM | [12] > 100 µM | [14] > 100 µM | [15] > 100 µM | [16] > 100 µM | [17] > 100 µM
